Data taken from patent US11884649B2, “IRE1α inhibitors and uses thereof” (The Regents of the University of California, priority 2020, dated 2024).
pIC50, pKi: −log10 of the molar value.

Target: T1, IRE1α* (Homo sapiens, UniProt O75460)
T1 construct: human IRE1α (residues 547-977, IRE1α*) was expressed in SF9 insect cells; His6 (N); made in house; host or cells: Sf9 insect cells (Bac-to-Bac baculovirus)
Experiment: In vitro kinase activity assay (IRE1α kinase inhibition)
Type: biochemical
Conditions: for pKi: read-out: Inhibition of IRE1α*'s kinase activity, Ki; for pIC50: IRE1α kinase inhibition, read-out: IC50 IRE1a
Method: A construct containing the cytosolic kinase and RNase domains of human IRE1α (residues 547-977, IRE1α*) was expressed in SF9 insect cells by using the Bac-to-Bac baculovirus expression system (Invitrogen) with a His6 tag at the N-terminus and purified with a nickel-nitriloacetic acid (Qiagen) column. To generate dP-IRE1α*, we removed basal phosphorylation sites by incubating IRE1α* with λ-PPase (New England Biolabs) at a molar ratio of 5:1 (IRE1α*: λ-PPase) in 50 mM HEPES pH 7.5, 100 mM NaCl, 1 mM MnCl2, 2 mM dithiothreitol (DTT) and 0.01% Brij 35 detergent (v/v) overnight at 4° C. Dephosphorylation was verified through western blotting using a universal phospho-protein detection agent (biotin-pIMAGO (Tymora Analytical Operations, Cat. No.: FL800) and imaged using a streptavidin-linked fluorophore.
In Vitro Kinase Activity Assay
Inhibitors (initial concentration of 10 or 60 μM, three-fold serial dilutions) were incubated with IRE1α* in cleavage buffer (20 mM HEPES, 0.05% Triton X-100 (v/v), 50 mM KCl, 1 mM MgCl2, 1 mM DTT, pH 7.5) for 30 min, followed by incubation with 10 μCi [γ^32P] ATP (3,000 Ci mmol^−1, PerkinElmer) at 23° C. for 3 hours. Samples were then spotted onto glass fiber paper (Easytab-C Glass Fiber Filter Paper, Perkin Elmer) and washed in twice with 0.5% phosphoric acid and autoradiographed using a GE Typhoon FLA 9000 Imager. Blots were quantitated using ImageQuant software. The percent inhibition was quantified by setting the background (no kinase well) as 0 and standardizing to IRE1α* without compound treatment (IRE1α*+DMSO). Dose-response curves were fit using “one-site fit log IC50” parameter using GraphPad Prism analysis software.
Compound Characterization (IC50 IRE1α Kinase Inhibition)

T1 sequence (O75460 547-977): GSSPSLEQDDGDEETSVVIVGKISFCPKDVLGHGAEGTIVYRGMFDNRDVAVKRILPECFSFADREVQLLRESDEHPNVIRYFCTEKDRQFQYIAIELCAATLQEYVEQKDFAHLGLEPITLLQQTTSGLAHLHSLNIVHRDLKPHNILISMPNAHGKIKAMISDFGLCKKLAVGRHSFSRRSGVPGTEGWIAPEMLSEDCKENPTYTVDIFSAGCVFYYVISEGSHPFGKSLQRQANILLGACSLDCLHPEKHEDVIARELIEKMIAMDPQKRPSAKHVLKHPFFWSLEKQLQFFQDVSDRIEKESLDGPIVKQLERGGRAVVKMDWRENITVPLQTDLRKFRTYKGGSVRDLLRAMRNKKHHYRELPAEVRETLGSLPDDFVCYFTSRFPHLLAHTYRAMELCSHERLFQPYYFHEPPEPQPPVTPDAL

| pKi | pIC50 | Compound |
| --- | --- | --- |
| 7.01 | – | N[C@H]1CC[C@H](Nc2nccc(-c3cccnc3Oc3cccc4c(NS(=O)(=O)C5CCC5)cccc34)n2)CC1 [compound 6, N-(5-(3-(2-((1r,4r)-4-aminocyclohexylamino)pyrimidin-4-yl)pyridin-2-yloxy)naphthalen-1-yl) cyclobutanesulfonamide] |
| – | 7.80 | Cc1c(F)c(NS(C)(=O)=O)c2ccccc2c1Oc1ncccc1-c1ccnc(N[C@H]2CCCNC2)n1 [LBC-0000401, (S)—N-(2-fluoro-3-methyl-4-((3-(2-(piperidin-3-ylamino)pyrimidin-4-yl)pyridin-2-yl)oxy)naphthalen-1-yl) methane sulfonamide] |
| – | 8.10 | Cc1cc(NS(=O)(=O)CC(F)(F)F)c2ccccc2c1Oc1ncccc1-c1ccnc(N[C@H]2CCCNC2)n1 [LBC-0000389, (S)-2,2,2-trifluoro-N-(3-methyl-4-((3-(2-(piperidin-3-ylamino)pyrimidin-4-yl)pyridin-2-yl)oxy)naphthalen-1-yl) ethane sulfonamide] |
| – | 8.14 | O=S(=O)(CC(F)(F)F)Nc1ccc(Oc2ncccc2-c2ccnc(N[C@@H]3CNC[C@@H](F)C3)n2)c2ccccc12 [LBC-0000398, 2,2,2-trifluoro-N-(4-((3-(2-(((3S,5S)-5-fluoropiperidin-3-yl)amino)pyrimidin-4-yl)pyridin-2-yl)oxy)naphthalen-1-yl) ethane-1-sulfonamide] |
| 6.32 | – | Nc1ccc(Oc2ncccc2-c2ccnc(N[C@H]3CC[C@H](N)CC3)n2)cc1F [compound 1, (1r,4r)-N1-(4-(2-(4-amino-3-fluorophenoxy)pyridin-3-yl)pyrimidin-2-yl) cyclohexane-1,4-diamine] |
| – | 8.02 | Cc1c(F)c(NS(=O)(=O)CC(F)(F)F)c2ccccc2c1Oc1ncccc1-c1ccnc(N[C@H]2CCCNC2)n1 [LBC-0000390, (S)-2,2,2-trifluoro-N-(2-fluoro-3-methyl-4-((3-(2-(piperidin-3-ylamino)pyrimidin-4-yl)pyridin-2-yl)oxy)naphthalen-1-yl) ethane-1-sulfonamide] |
| 6.85 | – | N[C@H]1CC[C@H](Nc2nccc(-c3cccnc3Oc3ccc(NS(=O)(=O)C4CC4)c4ccccc34)n2)CC1 [compound 5, N-(4-(3-(2-((1r,4r)-4-aminocyclohexylamino)pyrimidin-4-yl)pyridin-2-yloxy)naphthalen-1-yl)cyclopropanesulfonamide] |
| – | 8.29 | Cc1c(F)c(NS(=O)(=O)CC(F)(F)F)c2ccccc2c1Oc1ncccc1-c1ccnc(N[C@@H]2CNC[C@@H](F)C2)n1 [LBC-0000399, 2,2,2-trifluoro-N-(2-fluoro-4-((3-(2-(((3S,5S)-5-fluoropiperidin-3-yl)amino)pyrimidin-4-yl)pyridin-2-yl)oxy)-3-methylnaphthalen-1-yl) ethane-1-sulfonamide] |
